Reference: patent US6503923B1, “Haloalkoxy imidazonaphthyridines” (ALTANA Pharma AG, priority 1999, dated 2003)

Columns and labels:
[1] = test system: pentagastrin-stimulated acid secretion of perfused rat stomachs; experiment: Antisecretory action in perfused rat stomachs (pentagastrin-stimulated acid secretion in vivo); settings: anesthetized CD rat, female, dose 3 μmol/kg i.v., perfused stomach
Text: Testing of the Antisecretory Action in Perfused Rat Stomachs
The influence of the compounds according to the invention after intravenous administration on the pentagastrin-stimulated acid secretion of perfused rat stomachs in vivo is shown in Table A which follows.
The abdomen of anesthetized rates (CD rat, female, 200-250 g; 1.5 g/kg i.m. urethane) was opened after tracheotomy by means of a median upper abdominal incision and a PVC catheter was fixed transorally in the esophagus and another via the pylorus such that the ends of the tubes just projected into the gastric lumen. The catheter leading from the pylorus led outwards into the right abdominal wall through a side opening.
After thorough rinsing (about 50-100 ml), warm physiological NcCl solution (37° C.) was continuously passed through the stomach (0.5 ml/min, pH 6.8-6.9, Braun-Unita I). The pH (pH meter 632, glass electrode EA 147; φ=5 mm, Metrohm) and, by titration with a freshly prepared 0.01 N NaOH solution to pH 7 (dosimat 665 Metrohm), the secreted HCl were determined in the effluent, in each case collected at an interval of 15 minutes.
The gastric secretion was stimulated by continuous infusion of […] (=1.65 ml/h) of i.v. pentagastrin (left femoral vein) about 30 min after the end of the operation (i.e. after determination of 2 preliminary fractions). […]

melting point: 178 to 180 °C
SMILES: Cc1nc2c3c(ccn2c1C)[C@@H](OCC(F)(F)F)[C@H](O)[C@@H](c1ccccc1)N3 [Example 1, (7R, 8R, 9R)-2,3-Dimethyl-8-hydroxy-7-(2,2,2-trifluoroethoxy)-9-phenyl-7,8,9,10-tetra-hydroimidazo[1,2-h][1,7]naphthyridine]
Inhibition of acid secretion [1]: 100%
